Calls of active or inactive are those of the source. Some results are limits rather than exact numbers.

A word on the Ki: it is a dissociation constant, usually derived from enzyme kinetics or from competition with a known ligand. For orientation: IC50 means the concentration that gives 50% inhibition. The term EC50 denotes the concentration giving half of the maximal effect. The term AC50 denotes the concentration at which the activity in the assay is half-maximal.

The target of assay [1] is Tyrosine-protein kinase Srms (Homo sapiens, UniProt Q9H3Y6). The format is functional.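 Further: SRMS measured as one member of a kinome-wide kinase profiling panel.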
Assay [2] addresses Serine/threonine-protein kinase D3 (Homo sapiens, UniProt O94806). The class given is functional.
The target of assay [3] is Serine/threonine-protein kinase Nek4 (Homo sapiens, UniProt P51957). The class given is functional.
The target in assay [4] is Calcium/calmodulin-dependent protein kinase type II subunit delta (Homo sapiens, UniProt Q13557). The class given is functional.
In assay [5] the target is Protein-tyrosine kinase 2-beta (Homo sapiens, UniProt Q14289). The class given is functional.
In assay [6] the target is Tyrosine-protein kinase Fyn (Homo sapiens, UniProt P06241). The class given is functional.
For assay [7], the target named is Dual specificity tyrosine-phosphorylation-regulated kinase 4 (Homo sapiens, UniProt Q9NR20). The format is functional.
Assay [8] addresses Maternal embryonic leucine zipper kinase (Homo sapiens, UniProt Q14680). The format is functional.
Assay [9] addresses Rho-associated protein kinase 1 (Homo sapiens, UniProt Q13464). The class given is functional.
Assay [10] deals with Protein-tyrosine kinase 6 (Homo sapiens, UniProt Q13882). The class given is functional.
Assay [11] concerns the target Fibroblast growth factor receptor 3 (Homo sapiens, UniProt P22607). The format is functional.
The target in assay [12] is Ribosomal protein S6 kinase beta-1 (Homo sapiens, UniProt P23443). The format is functional.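 Further: measured as one member of a kinome-wide profiling panel.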
The target of assay [13] is Homeodomain-interacting protein kinase 2 (Homo sapiens, UniProt Q9H2X6). The class given is functional.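 Further: measured within a kinome-wide kinase profiling panel, HIPK2 being one panel member.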
Assay [14] addresses MAP kinase-activated protein kinase 2 (Homo sapiens, UniProt P49137). The class given is functional.
Assay [15] concerns the target Dual specificity tyrosine-phosphorylation-regulated kinase 3 (Homo sapiens, UniProt O43781). The class given is functional.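 Further: measured as one member of a broad kinase panel.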
Assay [16] has as its target Aurora kinase B (Homo sapiens, UniProt Q96GD4). The class given is functional.
Assay [17] has as its target cAMP-dependent protein kinase catalytic subunit alpha (Homo sapiens, UniProt P17612). The format is functional.
The target of assay [18] is Receptor tyrosine-protein kinase erbB-4 (Homo sapiens, UniProt Q15303). The class given is functional.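 Further: ERBB4 member of a kinome-wide kinase profiling panel.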
The target of assay [19] is Protein kinase C gamma type (Homo sapiens, UniProt P05129). The format is functional.
Assay [20] deals with RAC-alpha serine/threonine-protein kinase (Homo sapiens, UniProt P31749). The format is functional.
Assay [21] concerns the target Aurora kinase A (Homo sapiens, UniProt O14965). The format is functional.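 Further: value from the Navigating the Kinome kinase panel profiling, panel entry STK6.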
Assay [22] deals with Testis-specific serine/threonine-protein kinase 2 (Homo sapiens, UniProt Q96PF2). The class given is functional.
In assay [23] the target is Serine/threonine-protein kinase PLK4 (Homo sapiens, UniProt O00444). The format is functional.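 Further: PLK4 measured as one member of a kinome-wide kinase profiling panel.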
Assay [24] deals with T1, Mannose-6-phosphate isomerase (Homo sapiens, UniProt P34949).
T1 sequence (P34949 whole entry): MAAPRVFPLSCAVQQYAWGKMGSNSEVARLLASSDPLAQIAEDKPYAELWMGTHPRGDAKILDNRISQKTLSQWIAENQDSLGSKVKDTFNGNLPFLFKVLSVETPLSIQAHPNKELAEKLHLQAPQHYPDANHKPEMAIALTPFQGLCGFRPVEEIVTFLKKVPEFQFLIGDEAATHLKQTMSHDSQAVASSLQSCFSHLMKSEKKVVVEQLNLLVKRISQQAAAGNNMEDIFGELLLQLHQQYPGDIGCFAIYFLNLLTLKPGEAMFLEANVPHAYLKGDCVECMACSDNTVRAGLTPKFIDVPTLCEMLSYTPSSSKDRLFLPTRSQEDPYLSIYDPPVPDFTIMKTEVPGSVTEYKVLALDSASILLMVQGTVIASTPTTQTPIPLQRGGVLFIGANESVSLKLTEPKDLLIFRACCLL
As to the kind of experiment: MPI enzyme activity inhibition – biochemical, fluorescence intensity, coupled assay, primary screen (AID 1209).

The nature of assay [25]: Counterscreen for activators of the function of SWI/SNF related, matrix associated, actin dependent regulator of chromatin, subfamily a, member 2 (SMARCA2, BRM): Luminescence-based cell-based high throughput dose response assay to identify non-selective compounds using the VP16 reporter assay. The class given is functional. (Counterscreens check selectivity or assay interference.)

In assay [26] the target is Procathepsin L (Homo sapiens, UniProt P07711).
Assay [27] deals with Dual specificity tyrosine-phosphorylation-regulated kinase 1A (Rattus norvegicus, UniProt Q63470). The format is biochemical, Homo sapiens.
The target of assay [28] is Large T antigen (Simian virus 40, UniProt P03070). The class given is functional, Betapolyomavirus macacae.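 Further: Confirmatory-stage PubChem screen for compounds that inhibit SV40 T antigen.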
Assay [29] deals with ORF 73 (Human herpesvirus 8, UniProt O40947). As to the kind of experiment: KSHV LANA DNA-binding disruption – biochemical, fluorescence polarization, cherry-picked samples, dose response (AID 504725).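 Further: fluorescence polarization of a labeled DNA duplex reporting LANA DNA binding; potency is for inhibitors that block LANA binding to the DNA.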 Also on record: species or system Human gammaherpesvirus 8.
Assay [30] addresses T2, Sentrin-specific protease 8 (Homo sapiens, UniProt Q96LD8).
T2 sequence (Q96LD8 whole entry): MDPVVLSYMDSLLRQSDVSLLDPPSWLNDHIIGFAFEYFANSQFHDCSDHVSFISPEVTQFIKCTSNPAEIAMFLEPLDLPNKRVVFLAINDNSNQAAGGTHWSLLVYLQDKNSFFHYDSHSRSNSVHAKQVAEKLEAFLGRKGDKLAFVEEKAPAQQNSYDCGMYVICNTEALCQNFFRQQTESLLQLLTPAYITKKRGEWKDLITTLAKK
The format is functional.

The target in assay [31] is Tyrosyl-DNA phosphodiesterase 2 (Homo sapiens, UniProt O95551). As to the kind of experiment: potency against TDP2 phosphodiesterase activity – biochemical, epi absorbance, IC50, dose response (AID 743297).
Assay [32] deals with INS1. As to the kind of experiment: INS-1E survival protection against cytokine death – cell-based, luminescence, retest, dose response (AID 449756).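 Further: cell death triggered by IL-1 beta plus TNF-alpha plus IFN-gamma mixture; protective hits raise ATP signal compared with cytokine alone wells.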 As to conditions: Rattus norvegicus. The format is functional.
The target in assay [33] is ATP-dependent molecular chaperone HSP82 (Candida albicans (strain WO-1) (Yeast), UniProt C4YTQ8). As to the kind of experiment: steroid-induced GRE reporter decrease in yeast – S. cerevisiae, luminescence, Hsp90 inhibitor project, dose response (AID 2400).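 Further: beta-galactosidase luminescence from glucocorticoid response element reporter as proxy for Hsp90 function; inhibitor potency where signal loss means Hsp90 inhibition.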 The format is functional, cell-based.
For assay [34], the system named is HEK293. As to the kind of experiment: SAR Analysis of small molecule inhibitors of T-cell specific antigen receptor-induced NF-kB activation in a HEK-293T cell line using a luminescence assay. [Related pubchem assays (depositor defined):AID435003, AID435012, AID489026]. The class given is functional, cell-based. As to conditions: Homo sapiens.

Protein-tyrosine kinase 2-beta, sequence (Q14289 whole entry): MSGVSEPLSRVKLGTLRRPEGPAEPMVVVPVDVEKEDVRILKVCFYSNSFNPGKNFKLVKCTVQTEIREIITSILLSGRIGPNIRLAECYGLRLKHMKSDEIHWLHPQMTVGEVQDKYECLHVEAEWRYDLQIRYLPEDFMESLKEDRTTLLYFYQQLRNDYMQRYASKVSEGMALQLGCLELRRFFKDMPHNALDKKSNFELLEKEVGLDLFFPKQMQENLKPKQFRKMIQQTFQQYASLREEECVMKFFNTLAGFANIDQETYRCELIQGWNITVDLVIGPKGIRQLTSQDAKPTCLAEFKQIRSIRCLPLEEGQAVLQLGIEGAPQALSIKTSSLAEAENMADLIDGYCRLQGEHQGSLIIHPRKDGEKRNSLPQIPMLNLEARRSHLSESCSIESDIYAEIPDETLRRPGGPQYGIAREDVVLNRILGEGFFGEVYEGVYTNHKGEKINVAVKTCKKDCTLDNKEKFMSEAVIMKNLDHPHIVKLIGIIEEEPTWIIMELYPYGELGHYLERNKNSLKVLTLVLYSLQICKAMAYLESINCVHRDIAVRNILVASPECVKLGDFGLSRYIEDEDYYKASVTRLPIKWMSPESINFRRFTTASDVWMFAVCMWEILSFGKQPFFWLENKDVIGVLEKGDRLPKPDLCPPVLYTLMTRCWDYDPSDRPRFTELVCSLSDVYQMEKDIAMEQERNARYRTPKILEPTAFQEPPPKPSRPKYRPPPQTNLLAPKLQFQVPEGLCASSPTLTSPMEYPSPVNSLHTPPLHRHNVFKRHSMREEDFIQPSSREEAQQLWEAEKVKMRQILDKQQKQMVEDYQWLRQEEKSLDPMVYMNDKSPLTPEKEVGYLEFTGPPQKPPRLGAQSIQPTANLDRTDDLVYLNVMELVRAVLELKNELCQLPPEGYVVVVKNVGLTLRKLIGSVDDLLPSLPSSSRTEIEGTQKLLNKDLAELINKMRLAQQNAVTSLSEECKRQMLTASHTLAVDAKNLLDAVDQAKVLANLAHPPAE
Ribosomal protein S6 kinase beta-1, sequence (P23443 whole entry): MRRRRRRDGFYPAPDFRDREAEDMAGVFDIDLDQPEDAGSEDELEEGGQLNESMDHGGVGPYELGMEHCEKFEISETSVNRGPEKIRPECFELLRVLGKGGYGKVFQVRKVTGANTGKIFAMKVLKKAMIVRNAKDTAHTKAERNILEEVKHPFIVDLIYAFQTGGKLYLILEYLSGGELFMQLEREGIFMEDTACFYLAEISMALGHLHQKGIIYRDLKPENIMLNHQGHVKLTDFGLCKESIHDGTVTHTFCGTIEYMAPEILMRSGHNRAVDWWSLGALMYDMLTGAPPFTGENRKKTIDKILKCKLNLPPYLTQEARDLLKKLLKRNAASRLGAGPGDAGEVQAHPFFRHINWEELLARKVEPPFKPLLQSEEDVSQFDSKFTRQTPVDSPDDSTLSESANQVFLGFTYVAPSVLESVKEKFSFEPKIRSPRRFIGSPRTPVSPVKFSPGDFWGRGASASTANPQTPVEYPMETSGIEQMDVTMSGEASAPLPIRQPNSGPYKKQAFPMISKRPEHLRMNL
ORF 73, sequence (O40947 whole entry): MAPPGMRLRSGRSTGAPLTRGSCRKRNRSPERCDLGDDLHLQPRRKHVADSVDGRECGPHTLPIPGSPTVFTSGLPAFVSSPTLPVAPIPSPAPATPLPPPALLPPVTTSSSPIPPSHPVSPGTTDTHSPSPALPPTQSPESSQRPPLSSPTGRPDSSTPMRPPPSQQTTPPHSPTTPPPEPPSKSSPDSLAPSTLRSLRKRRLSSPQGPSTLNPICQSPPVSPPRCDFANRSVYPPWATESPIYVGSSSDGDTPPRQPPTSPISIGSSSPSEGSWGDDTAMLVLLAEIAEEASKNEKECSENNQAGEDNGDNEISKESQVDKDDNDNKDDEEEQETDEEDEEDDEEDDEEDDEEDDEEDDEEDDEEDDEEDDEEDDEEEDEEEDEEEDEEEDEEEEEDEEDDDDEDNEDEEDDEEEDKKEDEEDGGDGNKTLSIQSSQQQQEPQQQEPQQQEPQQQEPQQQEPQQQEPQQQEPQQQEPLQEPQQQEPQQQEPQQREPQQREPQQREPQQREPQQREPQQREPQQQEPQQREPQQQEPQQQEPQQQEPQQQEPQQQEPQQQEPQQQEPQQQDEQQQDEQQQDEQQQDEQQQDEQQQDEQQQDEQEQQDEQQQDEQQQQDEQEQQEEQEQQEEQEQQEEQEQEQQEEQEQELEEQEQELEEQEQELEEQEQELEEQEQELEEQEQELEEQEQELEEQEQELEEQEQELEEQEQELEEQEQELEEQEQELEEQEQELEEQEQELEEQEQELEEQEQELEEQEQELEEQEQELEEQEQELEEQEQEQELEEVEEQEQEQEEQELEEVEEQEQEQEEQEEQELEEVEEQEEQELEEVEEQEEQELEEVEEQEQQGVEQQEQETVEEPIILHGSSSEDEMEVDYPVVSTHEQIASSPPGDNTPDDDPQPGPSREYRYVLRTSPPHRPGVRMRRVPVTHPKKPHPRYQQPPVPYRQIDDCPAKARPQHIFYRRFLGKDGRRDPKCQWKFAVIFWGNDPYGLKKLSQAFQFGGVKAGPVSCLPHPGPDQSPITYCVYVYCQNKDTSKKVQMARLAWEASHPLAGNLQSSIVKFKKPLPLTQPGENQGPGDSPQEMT
Maternal embryonic leucine zipper kinase, sequence (Q14680 whole entry): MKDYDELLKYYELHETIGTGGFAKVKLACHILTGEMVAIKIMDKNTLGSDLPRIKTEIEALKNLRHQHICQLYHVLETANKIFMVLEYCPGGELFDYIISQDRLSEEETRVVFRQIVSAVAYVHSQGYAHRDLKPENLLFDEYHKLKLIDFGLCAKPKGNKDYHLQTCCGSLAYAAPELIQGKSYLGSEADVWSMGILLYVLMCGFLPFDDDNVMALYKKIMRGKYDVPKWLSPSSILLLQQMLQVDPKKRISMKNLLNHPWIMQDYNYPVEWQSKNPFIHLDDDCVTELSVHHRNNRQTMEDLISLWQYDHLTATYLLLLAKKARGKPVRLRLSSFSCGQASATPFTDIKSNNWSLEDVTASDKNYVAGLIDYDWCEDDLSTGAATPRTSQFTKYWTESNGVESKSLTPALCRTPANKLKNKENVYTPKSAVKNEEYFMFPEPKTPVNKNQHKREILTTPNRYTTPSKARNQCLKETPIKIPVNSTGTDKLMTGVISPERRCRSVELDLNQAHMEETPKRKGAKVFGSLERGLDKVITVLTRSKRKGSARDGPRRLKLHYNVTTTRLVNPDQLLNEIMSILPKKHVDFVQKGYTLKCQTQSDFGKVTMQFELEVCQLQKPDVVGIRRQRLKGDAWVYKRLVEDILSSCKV
Procathepsin L, sequence (P07711 whole entry): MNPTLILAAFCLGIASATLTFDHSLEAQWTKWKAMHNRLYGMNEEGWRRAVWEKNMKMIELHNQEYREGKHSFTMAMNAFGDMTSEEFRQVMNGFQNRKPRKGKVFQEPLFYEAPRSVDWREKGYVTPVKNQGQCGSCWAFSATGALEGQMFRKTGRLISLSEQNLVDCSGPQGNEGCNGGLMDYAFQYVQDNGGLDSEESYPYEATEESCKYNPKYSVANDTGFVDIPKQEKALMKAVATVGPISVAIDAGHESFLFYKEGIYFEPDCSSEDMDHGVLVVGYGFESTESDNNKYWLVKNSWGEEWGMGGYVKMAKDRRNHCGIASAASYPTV
Serine/threonine-protein kinase Nek4, sequence (P51957 whole entry): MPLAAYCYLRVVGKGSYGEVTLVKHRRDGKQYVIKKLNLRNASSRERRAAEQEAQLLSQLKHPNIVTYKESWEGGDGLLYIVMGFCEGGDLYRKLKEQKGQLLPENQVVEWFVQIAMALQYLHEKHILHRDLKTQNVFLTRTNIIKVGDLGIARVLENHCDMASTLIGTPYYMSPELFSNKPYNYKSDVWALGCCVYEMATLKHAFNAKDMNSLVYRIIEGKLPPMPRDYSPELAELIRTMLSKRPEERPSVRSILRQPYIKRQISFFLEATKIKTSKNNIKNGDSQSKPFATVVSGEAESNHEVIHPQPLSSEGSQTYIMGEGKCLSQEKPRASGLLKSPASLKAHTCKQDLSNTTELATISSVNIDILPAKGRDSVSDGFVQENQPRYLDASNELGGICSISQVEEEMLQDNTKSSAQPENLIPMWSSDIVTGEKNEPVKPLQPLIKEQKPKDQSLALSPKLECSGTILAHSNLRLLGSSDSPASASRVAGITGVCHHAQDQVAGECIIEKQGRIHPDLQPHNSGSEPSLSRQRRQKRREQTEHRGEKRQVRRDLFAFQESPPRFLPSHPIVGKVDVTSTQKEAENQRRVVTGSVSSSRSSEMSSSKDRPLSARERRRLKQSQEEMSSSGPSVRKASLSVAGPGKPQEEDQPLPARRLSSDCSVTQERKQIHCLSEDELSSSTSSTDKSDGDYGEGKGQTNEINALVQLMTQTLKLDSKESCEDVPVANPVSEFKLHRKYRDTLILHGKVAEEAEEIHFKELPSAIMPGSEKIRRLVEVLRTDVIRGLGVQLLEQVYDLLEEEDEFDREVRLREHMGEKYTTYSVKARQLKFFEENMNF
Dual specificity tyrosine-phosphorylation-regulated kinase 4, sequence (Q9NR20 whole entry): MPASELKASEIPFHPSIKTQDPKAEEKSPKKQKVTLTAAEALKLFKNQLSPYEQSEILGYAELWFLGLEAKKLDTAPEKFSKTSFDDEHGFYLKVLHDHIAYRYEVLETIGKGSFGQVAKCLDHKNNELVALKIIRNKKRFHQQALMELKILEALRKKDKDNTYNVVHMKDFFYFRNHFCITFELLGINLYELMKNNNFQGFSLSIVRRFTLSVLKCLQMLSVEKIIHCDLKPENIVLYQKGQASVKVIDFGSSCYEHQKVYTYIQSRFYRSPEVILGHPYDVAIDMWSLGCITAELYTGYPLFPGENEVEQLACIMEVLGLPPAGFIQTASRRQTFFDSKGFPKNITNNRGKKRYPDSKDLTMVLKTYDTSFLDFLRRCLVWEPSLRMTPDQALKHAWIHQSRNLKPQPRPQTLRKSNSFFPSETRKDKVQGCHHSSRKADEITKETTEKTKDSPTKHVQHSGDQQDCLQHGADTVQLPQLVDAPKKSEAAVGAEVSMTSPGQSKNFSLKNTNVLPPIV

Take `Cc1cccc(NC(=O)Nc2ccc3c(c2)CCc2sc4ncnc(N)c4c2-3)c1`: the Ki in assay [1] is > 1.58 µM (inactive); in [2] it was 2.51 µM (active); in [3], > 6.31 µM (inactive); in assay [4], > 6.31 µM (inactive); in assay [5], > 1.58 µM (inactive); in assay [6], > 0.794 µM (inactive). Besides, the Ki in [7] was 6.31 µM (active); in assay [8] it was 0.794 µM (active); in [9], 0.794 µM (active); in assay [10], > 2.51 µM (inactive); in [11], > 2 µM (inactive); in [12], 0.0398 µM (active). The Ki in assay [13] was > 3.16 µM (inactive); in assay [14] it was > 7.94 µM (inactive); in assay [15], > 6.31 µM (inactive); in [16], 0.0316 µM (active); in assay [17] it was > 7.94 µM (inactive); in assay [18], > 3.98 µM (inactive). Moreover, the Ki in assay [19] is > 7.94 µM (inactive); in assay [20] it was > 7.94 µM (inactive); in assay [21] it was 0.0794 µM (active); in assay [22] it was > 1.58 µM (inactive); in assay [23], 0.251 µM (active).
For `Cc1ccc(-n2sc3ccccc3c2=O)cc1`, the IC50 in assay [24] was 6.78 µM (active); in assay [26] it was > 59.6 µM (not active). Also, the EC50 in assay [25] is 51.5 µM (inactive).
With `N/C(=N\N=C/c1ccc(-c2ccc(O)c(C(=O)O)c2)o1)N[N+](=O)[O-]`, the half-maximal activity concentration (AC50) was 1.13 µM (active) in assay [27] and 111 µM (active) in assay [29]. Moreover, the IC50 in assay [28] was 25.4 µM (active).
Regarding `CC(=O)N(/N=C1\Sc2ccccc2C1=O)c1ccccc1C`, the IC50 in assay [30] was 3.46 µM (active); in assay [31] it was 7.67 µM (active).
As to `CCCC(=O)NC(c1ccc(Cl)cc1)c1ccc2cccnc2c1O` (centres undefined), the AC50 in assay [32] is 0.458 µM (active). Besides, in assay [33], the EC50 is > 160 µM (inactive). For the same molecule, in assay [34], the IC50 was 3.72 µM (active).

For the origin of these results see ChEMBL document CHEMBL1201862, “PubChem BioAssay data set” (2004).
